Patent US9169254B2, “Spiroimidazolone derivative” (Chugai Seiyaku Kabushiki Kaisha, priority 2009, dated 2015)

Biological target: T1, human PTH1 receptor (Homo sapiens, UniProt Q03431)
T1 sequence (Q03431 27-593): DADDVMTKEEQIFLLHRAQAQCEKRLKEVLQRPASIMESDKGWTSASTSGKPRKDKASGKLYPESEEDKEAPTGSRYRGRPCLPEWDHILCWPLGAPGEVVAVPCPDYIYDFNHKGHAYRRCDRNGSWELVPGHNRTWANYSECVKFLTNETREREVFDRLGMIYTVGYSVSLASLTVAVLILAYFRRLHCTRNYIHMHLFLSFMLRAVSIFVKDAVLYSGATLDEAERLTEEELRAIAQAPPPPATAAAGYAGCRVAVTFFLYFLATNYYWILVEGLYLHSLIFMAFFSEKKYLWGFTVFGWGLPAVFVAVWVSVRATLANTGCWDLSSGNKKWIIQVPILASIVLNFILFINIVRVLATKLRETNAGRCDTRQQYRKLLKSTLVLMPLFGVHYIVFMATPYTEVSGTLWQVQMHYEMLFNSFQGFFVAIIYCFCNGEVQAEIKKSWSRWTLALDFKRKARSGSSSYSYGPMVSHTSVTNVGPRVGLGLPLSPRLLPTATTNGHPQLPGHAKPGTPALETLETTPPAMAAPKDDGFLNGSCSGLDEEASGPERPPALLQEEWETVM
Assay: In vitro cAMP signal activity in HKRK-B7 cells (LLC-PK1 cells overexpressing the human PTH1 receptor)
Type: cell-based
Conditions: HKRK-B7 cells; compound at 1×10^−3 M; cAMP produced as percentage of that produced by hPTH(1-34) at 100 nM

SMILES	cAMP production activity (%)
CC1CCC(C2=NC3(CCN(S(=O)(=O)CCCc4cccc5[nH]ccc45)CC3)C(=O)N2)CC1 (centres unmarked) [Compound 311, 8-[3-(1H-indol-4-yl)-propane-1-sulfonyl]-2-(4-methyl-cyclohexyl)-1,3,8-triaza-spiro[4.5]dec-1-en-4-one]	67%
[2H]C([2H])([2H])C([2H])([2H])Oc1cc(C2=NC3(CCN(S(=O)(=O)/C=C/c4c(C)cc(C(=O)N5CCC(O)(CF)CC5)cc4C)CC3)C(=O)N2)ccc1F [Compound 1272, 2-(3-[1,1,2,2,2-^2H5]ethoxy-4-fluoro-phenyl)-8-{(E)-2-[4-(4-fluoromethyl-4-hydroxy-piperidine-1-carbonyl)-2,6-dimethyl-phenyl]-ethenesulfonyl}-1,3,8-triaza-spiro[4.5]dec-1-en-4-one]	71%
Cc1cc(C(=O)N2CC(F)(F)C(F)(F)C2)ccc1CCS(=O)(=O)N1CCC2(CC1)N=C(C1CCCCC1)NC2=O [Compound 283, 2-cyclohexyl-8-{2-[2-methyl-4-(3,3,4,4-tetrafluoro-pyrrolidine-1-carbonyl)-phenyl]-ethanesulfonyl}-1,3,8-triaza-spiro[4.5]dec-1-en-4-one]	63%
Cc1cc(C(=O)N2CCC(O)(CF)CC2)cc(C)c1/C=C/S(=O)(=O)N1CCC2(CC1)N=C(c1cccc(C(C)(F)F)c1)NC2=O [Compound 1267, 2-[3-(1,1-difluoro-ethyl)-phenyl]-8-{(E)-2-[4-(4-fluoromethyl-4-hydroxy-piperidine-1-carbonyl)-2,6-dimethyl-phenyl]-ethenesulfonyl}-1,3,8-triaza-spiro[4.5]dec-1-en-4-one]	74%
O=C(/C=C/c1ccccc1)N1CCCC(C2=NC3(CCN(S(=O)(=O)CCc4cccc5ccccc45)CC3)C(=O)N2)C1 (centres unmarked) [Compound 441, 8-(2-Naphthalen-1-yl-ethanesulfonyl)-2-{1-[(E)-(3-phenyl-acryloyl)]-piperidin-3-yl}-1,3,8-triaza-spiro[4.5]dec-1-en-4-one]	24%
CC(=O)Nc1ccc(CCS(=O)(=O)N2CCC3(CC2)N=C(C2CC(C)(C)CC(C)(C)C2)NC3=O)c(C)c1 [Compound 926, N-(3-methyl-4-{2-[4-oxo-2-(3,3,5,5-tetramethyl-cyclohexyl)-1,3,8-triaza-spiro[4.5]dec-1-ene-8-sulfonyl]-ethyl}-phenyl)-acetamide]	102%
Cc1cc(C(=O)N2CCC(C)(O)CC2)cc(C)c1/C=C/S(=O)(=O)N1CCC2(CC1)N=C(c1cccc(S(F)(F)(F)(F)F)c1)NC2=O [Compound 1190, 8-{(E)-2-[4-(4-hydroxy-4-methyl-piperidine-1-carbonyl)-2,6-dimethyl-phenyl]-ethenesulfonyl}-2-(3-pentafluorosulfanyl-phenyl)-1,3,8-triaza-spiro[4.5]dec-1-en-4-one]	108%
Cc1cc(N(C)C(N)=O)cc(C)c1CCS(=O)(=O)N1CCC2(CC1)N=C(CCCCCc1ccccc1)NC2=O [Compound 1340, 1-(3,5-dimethyl-4-{2-[4-oxo-2-(5-phenyl-pentyl)-1,3,8-triaza-spiro[4.5]dec-1-ene-8-sulfonyl]-ethyl}-phenyl)-1-methyl-urea]	84%
CC(=O)N(CCOCCF)c1cc(C)c(/C=C/S(=O)(=O)N2CCC3(CC2)N=C(C2CCC(CCC(F)(F)F)CC2)NC3=O)c(C)c1 (centres unmarked) [Compound 551, N-[3,5-dimethyl-4-((E)-2-{4-oxo-2-[4-(3,3,3-trifluoro-propyl)-cyclohexyl]-1,3,8-triaza-spiro[4.5]dec-1-ene-8-sulfonyl}-vinyl)-phenyl]-N-[2-(2-fluoro-ethoxy)-ethyl]-acetamide]	92%
Cc1cc(N(CCO)C(=O)C(C)C)ccc1/C=C/S(=O)(=O)N1CCC2(CC1)N=C(c1cccc(OC(F)(F)F)c1)NC2=O [Compound 711, N-(2-Hydroxy-ethyl)-N-(3-methyl-4-{(E)-2-[4-oxo-2-(3-trifluoromethoxy-phenyl)-1,3,8-triaza-spiro[4.5]dec-1-ene-8-sulfonyl]-vinyl}-phenyl)-isobutylamide]	64%
Cc1ccc(OCCC(O)CO)cc1/C=C/S(=O)(=O)N1CCC2(CC1)N=C(c1cccc(OC(F)(F)F)c1)NC2=O (centres unmarked) [Compound 255, 8-{(E)-2-[5-(3,4-dihydroxy-butoxy)-2-methyl-phenyl]-ethenesulfonyl}-2-(3-trifluoromethoxy-phenyl)-1,3,8-triaza-spiro[4.5]dec-1-en-4-one]	64%
Cc1cc(C(F)(F)F)ccc1C1=NC2(CCN(S(=O)(=O)/C=C/c3c(C)cc(C(=O)N4CCC(O)(CF)CC4)cc3C)CC2)C(=O)N1 [Compound 1259, 8-{(E)-2-[4-(4-fluoromethyl-4-hydroxy-piperidine-1-carbonyl)-2,6-dimethyl-phenyl]-ethenesulfonyl}-2-(2-methyl-4-trifluoromethyl-phenyl)-1,3,8-triaza-spiro[4.5]dec-1-en-4-one]	101%
Cc1cc(C(=O)N(C)C)cc(C)c1CCS(=O)(=O)N1CCC2(CC1)N=C(C1CCC(C)CC1)NC2=O (centres unmarked) [Compound 1379, 3,5,N,N-tetramethyl-4-{2-[2-(4-methyl-cyclohexyl)-4-oxo-1,3,8-triaza-spiro[4.5]dec-1-ene-8-sulfonyl]-ethyl}-benzamide]	86%
Cc1cc(C(=O)N(C)C)ccc1CCS(=O)(=O)N1CCC2(CC1)N=C(C1CCC(C(C)(C)C)CC1)NC2=O (centres unmarked) [Compound 895, 4-{2-[2-(4-tert-butyl-cyclohexyl)-4-oxo-1,3,8-triaza-spiro[4.5]dec-1-ene-8-sulfonyl]-ethyl}-3,N,N-trimethyl-benzamide]	90%
Cc1cc(C(=O)N2CCC(O)CC2)cc(C)c1/C=C/S(=O)(=O)N1CCC2(CC1)N=C(c1cccc(CC#N)c1)NC2=O [Compound 1282, [3-(8-{(E)-2-[4-(4-Hydroxy-piperidine-1-carbonyl)-2,6-dimethyl-phenyl]-ethenesulfonyl}-4-oxo-1,3,8-triaza-spiro[4.5]dec-1-en-2-yl)-phenyl]-acetonitrile]	63%
Cc1cc(N(C)C(N)=O)cc(C)c1CCS(=O)(=O)N1CCC2(CC1)N=C(c1cccc(-c3ccccc3-c3ccccc3)c1)NC2=O [Compound 1087, 1-{3,5-Dimethyl-4-[2-(4-oxo-2-[1,1′;2′,1″]terphenyl-3-yl-1,3,8-triaza-spiro[4.5]dec-1-ene-8-sulfonyl)-ethyl]-phenyl}-1-methyl-urea]	97%
Cc1cc(C(=O)N(C)C)ccc1CCS(=O)(=O)N1CCC2(CC1)N=C(c1cccc(F)c1)NC2=O [Compound 109, 4-{2-[2-(3-fluoro-phenyl)-4-oxo-1,3,8-triaza-spiro[4.5]dec-1-ene-8-sulfonyl]-ethyl}-3,N,N-trimethyl-benzamide]	62%
CC(=O)N(CCO)c1ccc(/C=C/S(=O)(=O)N2CCC3(CC2)N=C(c2cccc(OC(F)(F)F)c2)NC3=O)c(C)c1 [Compound 232, N-(2-hydroxy-ethyl)-N-(3-methyl-4-{(E)-2-[4-oxo-2-(3-trifluoromethoxy-phenyl)-1,3,8-triaza-spiro[4.5]dec-1-ene-8-sulfonyl]-vinyl}-phenyl)-acetamide]	69%
CCCCC1CCC(C2=NC3(CCN(S(=O)(=O)/C=C/c4c(C)cc(N(CCOCCF)C(C)=O)cc4C)CC3)C(=O)N2)CC1 (centres unmarked) [Compound 562, N-(4-{(E)-2-[2-(4-butyl-cyclohexyl)-4-oxo-1,3,8-triaza-spiro[4.5]dec-1-ene-8-sulfonyl]-vinyl}-3,5-dimethyl-phenyl)-N-[2-(2-fluoro-ethoxy)-ethyl]-acetamide]	74%
O=C1NC(c2cccc(C(F)(F)F)c2)=NC12CCN(S(=O)(=O)/C=C/c1cccc3c1ccn3C[C@H](O)CO)CC2 [Compound 524, 8-{(E)-2-[1-((S)-2,3-dihydroxy-propyl)-1H-indol-4-yl]-ethenesulfonyl}-2-(3-trifluoromethyl-phenyl)-1,3,8-triaza-spiro[4.5]dec-1-en-4-one]	90%
Cc1cc(C(=O)N2CCN(CCOCCO)CC2)ccc1CCS(=O)(=O)N1CCC2(CC1)N=C(c1cccc(C(F)(F)F)c1)NC2=O [Compound 362, 8-[2-(4-{4-[2-(2-hydroxy-ethoxy)-ethyl]-piperazine-1-carbonyl}-2-methyl-phenyl)-ethanesulfonyl]-2-(3-trifluoromethyl-phenyl)-1,3,8-triaza-spiro[4.5]dec-1-en-4-one]	97%
CC(=O)N(CCO)c1ccc(C)c(/C=C/S(=O)(=O)N2CCC3(CC2)N=C(c2cccc(OC(F)(F)F)c2)NC3=O)c1 [Compound 257, N-(2-hydroxy-ethyl)-N-(4-methyl-3-{(E)-2-[4-oxo-2-(3-trifluoromethoxy-phenyl)-1,3,8-triaza-spiro[4.5]dec-1-ene-8-sulfonyl]-vinyl}-phenyl)-acetamide]	42%
Cc1cc2ccc1CCS(=O)(=O)N1CCC3(CC1)N=C(NC3=O)c1cc(cc(C(F)(F)F)c1)OCCCCCOCCN(CCO)C2=O [Compound 1429]	8.9%
